Experimental data published in patent publication US8334262B2, “Cognitive function” (priority 2008, dated 2012).

Tests used:
Sprague-Dawly male rats = assay: Odour maze learning (olfactory discrimination, 4-arm radial maze); assay type: in vivo, rat; details: i.p. every day, 2 hr before training; day 3 & 6 p<0.05, n=4
Description: Subjects and apparatus: Age-matched young adult Sprague-Dawly male rats were used. Prior to training they were maintained on a 23.5 hr water-deprivation schedule, with food available ad libitum. Olfactory discrimination training protocol was performed daily on each trained and pseudo-trained rat in a 4-arm radial maze, as previously described (Cohen-Matsliah et al. (2007) Journal of Neuroscience 27, 12584-12589), with commercial odours that are regularly used in the cosmetics and food industry.
(§1) C-16 was injected i.p. every day, 2 hr before odour maze training. There was 48 hr break between day 3 and 4 without training or injection.
Training: Olfactory training consisted of 20 trials per day for each rat as previously described (Cohen-Matsliah et al. (2007)). In short, in each trial the rat had to choose between two odours (positive- and negative-cue) presented simultaneously. Rats designated to the trained group were rewarded upon choosing the positive cue. The criterion for learning was at least 80% positive-cue choices in the last 10 trials of a training day, as was previously used (Cohen-Matsliah et al. (2007)). Training for a new pair began only after training for the […] pair was completed for all rats.

PKR [1] = molecular target: PKR (Homo sapiens, UniProt P19525); details: by inhibiting the ATP-binding site of PKR; cited from earlier work
PKR [2] = molecular target: T1, PKR (Rattus norvegicus, UniProt Q63184); assay: PKR phosphorylation in hippocampal slices from mature rats (Western blot); assay type: cell-based
T1 construct: from tissue; host or cells: rat hippocampal slices (400 µm)
T1 sequence (Q63184 1-513): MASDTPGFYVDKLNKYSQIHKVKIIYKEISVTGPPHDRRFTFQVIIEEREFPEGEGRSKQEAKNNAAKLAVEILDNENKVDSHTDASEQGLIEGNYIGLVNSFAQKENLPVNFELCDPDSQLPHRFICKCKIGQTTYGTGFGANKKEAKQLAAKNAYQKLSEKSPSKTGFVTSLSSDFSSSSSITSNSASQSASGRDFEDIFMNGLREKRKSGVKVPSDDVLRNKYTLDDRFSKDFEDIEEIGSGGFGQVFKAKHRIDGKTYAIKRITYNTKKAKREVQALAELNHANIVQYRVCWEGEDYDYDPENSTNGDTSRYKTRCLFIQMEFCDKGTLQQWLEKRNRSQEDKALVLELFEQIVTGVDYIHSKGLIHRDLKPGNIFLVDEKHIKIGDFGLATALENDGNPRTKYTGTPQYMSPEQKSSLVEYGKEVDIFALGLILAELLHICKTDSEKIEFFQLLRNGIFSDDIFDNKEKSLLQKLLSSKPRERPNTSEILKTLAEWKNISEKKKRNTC
Description: (§2) In order to test biochemically the ability of C-16 to reduce eIF-2α phosphorylation in the mature brain, C-16 was applied to hippocampal slices from mature rats substantially as described by Kaphzan et al. (2007) Journal of Neurochemistry 103, 388-399 but with modifications as set out below.
(§3) After decapitation the brain was immediately immersed in cold (4° C.) carboxygenated (95% O2, 5% CO2) Artificial Cerebro-Spinal Fluid (ACSF [in mM]: 124 NaCl, 5 KCl, 1.2 MgSO4, 1.2 NaH2PO4, 26 NaHCO3, 10 D-glucose, 2.4 CaCl), and after about 120s both hippocampi were dissected out in a plate filled with cold (4° C.) ACSF on ice. The hippocampi were put on a cooled stand of a Mcllwain tissue chopper TC752 (Campden Instruments Ltd, UK), cut into 400-μm slices, and then put back into a chamber filled with carboxygenated cold (4° C.) ACSF.
(§4) The slices were transferred to a holding chamber for about 20-30 min, to reach room temperature, and were then transferred to a six-chamber pharmacological instrument, designed to our specifications by Scientific Systems Design Company (Ontario, Canada). All of the slices tested in any one experiment (i.e., in all six chambers) were produced by the same procedure from the same rat. The hippocampal slices were heated to 32° C. and were kept in the chamber for 5 h before any pharmacological intervention. Each chamber contained four slices. The slices were perfused with heated and carboxygenated ACSF (with or without 50 μM C-16 (experimental and control groups respectively)) via a Model MP3 peristaltic pump (Gilson, France), at a rate of ˜2 mL min for 10 mins. The chamber space was carboxygenated and humidified. The chamber was an interface type, and the slices were placed upon a lens paper.
(§5) The slices were analysed occasionally for their viability using extracellular recordings of fEPSP in the CA1 region. […]
(§6) The time window of C-16 effect was analysed by Western blot using specific antibodies for phosphorylated and dephosphorylated forms of PKR and eIF-2α. […]

rats [3] = assay: Weak conditioned taste aversion (CTA); assay type: in vivo, rat
rats [4] = assay: Observation of side effects in rats injected with C-16; assay type: in vivo, rat
Description: Conditioned taste aversion and novel taste learning were enhanced.
as §1

rats [5] = assay: Novel taste learning, latent inhibition (LI) paradigm; assay type: in vivo, rat
Description: CTA was performed as described earlier (Rosenblum et al., (1993) Behavioral and Neural Biology 59, 49-56). Saccharin (0.1% w/v, sodium salt) or NaCl (0.3%) were used as the unfamiliar taste in training (i.e. the conditioned stimulus (CS)), and injection of LiCl (0.15 m, 2% body weight, i.p.) as the malaise-inducing agent (unconditioned stimulus (UCS)). At the beginning of the behavioral experiment, the rats were trained for 3 days to obtain their daily water ration once a day for 15 min from two pipettes each containing 10 mL of water. On the conditioning day, they were allowed to drink the saccharin solution instead of water from similar pipettes for 15 min, and 50 min later were injected with LiCl. Under these conditions, 2 days after training the conditioned rats preferred water to saccharin in a multiple choice test situation (three pipettes with 5 mL of saccharin each and three with 5 mL of water each), whereas non-conditioned rats preferred saccharin to water. The behavioural data are presented in terms of aversion index, defined as [mL water/(mL water+mL saccharin)] consumed in the test; 0.5 is a chance level, and the higher the aversion index, the more the rats prefer water to the conditioned taste. […]

rats [6] = assay: Contextual fear conditioning (freezing); assay type: in vivo, rat; details: i.p. 2 hr before conditioning; tested 24 hours and 10 days later; p<0.05
Excerpt: The entire behavioural procedure took place in the same conditioning chamber containing floor grids and transparent Plexiglas walls. The context of the chamber served as a conditioned stimulus (CS). Rats were placed in the chamber for an approximately two minute adjustment before they were given a foot-shock (0.8 mA for 0.5 sec), which was delivered to the floor bars and served as the unconditioned stimulus (US). The CS-US pairings were given three times. The inter-trial interval was 90-120 seconds throughout. The video images are transferred to a computer (fear-conditioning experiments, control experiment, Dell OptiPlex GXpro) equipped with an analysis program (Image (http://rsb.info.nih.gov/nih-image)) and a macroprogram (P. Schmid, Behavioral Neurobiology Laboratory, Swiss Federal Institute of Technology Zurich). The percentage of changed pixels between two adjacent 1 s images from one of the test boxes was used as a measure of activity. Freezing is commonly identified as cessation of any movement except for respiratory movements. If the percentage of changed pixels between two adjacent 1 s images was <0.05%, this corresponded well to such immobility and the behavior of the rat was scored as “freezing” for the respective second.
C-16 was injected i.p. 2 hr before contextual fear condition. […]

eIF-2α = eIF-2α phosphorylation in hippocampal slices from mature rats (Western blot); assay type: cell-based, rat
Description: as §2, §3, §4, §5, §6

[7] = 50 μM C-16 perfused on hippocampal slices
[8] = time window, Western blot, 1 hr after treatment

Sequence of PKR (Homo sapiens, UniProt P19525) (P19525 whole entry): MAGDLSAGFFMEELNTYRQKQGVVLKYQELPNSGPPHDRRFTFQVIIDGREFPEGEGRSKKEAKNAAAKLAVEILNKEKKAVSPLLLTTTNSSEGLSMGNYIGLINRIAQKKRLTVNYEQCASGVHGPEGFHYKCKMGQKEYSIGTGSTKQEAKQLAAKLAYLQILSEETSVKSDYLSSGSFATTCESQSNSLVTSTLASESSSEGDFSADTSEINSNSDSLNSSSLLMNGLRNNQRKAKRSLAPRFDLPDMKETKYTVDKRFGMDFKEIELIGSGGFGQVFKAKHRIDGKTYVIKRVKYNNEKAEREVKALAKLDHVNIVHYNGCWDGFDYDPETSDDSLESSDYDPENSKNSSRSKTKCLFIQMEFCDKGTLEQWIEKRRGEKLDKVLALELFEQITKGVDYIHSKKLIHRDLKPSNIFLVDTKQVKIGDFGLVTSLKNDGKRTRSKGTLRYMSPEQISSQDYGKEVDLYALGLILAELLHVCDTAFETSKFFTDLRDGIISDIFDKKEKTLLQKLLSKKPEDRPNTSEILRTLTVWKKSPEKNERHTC

SMILES: O=C1Nc2ccc3ncsc3c2/C1=C/c1c[nH]cn1 [Compound C-16]
- odour maze learning (FIG. 11) (Sprague-Dawly male rats): enhances odour maze learning
- PKR kinase activity (PKR [1]): able to inhibit PKR's kinase activity
- PKR phosphorylation in the mature hippocampus (FIG. 2) (PKR [2]; [7]): inhibited
- time of return of PKR phosphorylation to base line following treatment (PKR [2]; time window, Western blot): 3 to 4 h
- C-16 effect on PKR phosphorylation after 1 hr (PKR [2]; [8]): strong effect
- weak CTA (0.05M) to 0.3% NaCl (FIG. 10) (rats [3]; 30 min after local injection into the gustatory cortex, 50 μM, p<0.05): enhances weak CTA
- weak Conditioned Taste Aversion (0.05M) to 0.3% NaCl (FIG. 9) (rats [3]; 2 hr after i.p. application, n=8): enhances weak Conditioned Taste Aversion
- side effects on repeated i.p. injection (rats [4]; i.p. once a day over a period of more than 7 days, odour maze experiment): without any clear disadvantageous side effect
- other effects in taste learning experiments (rats [4]; local and i.p. injection): no other effect that could be measured
- novel taste memory of 0.1% Saccharin (FIG. 8) (rats [5]; 30 min after local microinjection into the gustatory cortex, 50 μM, p<0.05): enhances novel taste memory
- novel taste memory of 0.1% Saccharin (FIG. 7) (rats [5]; 2 hr after i.p. application, p<0.01, n=6): enhances novel taste memory
- contextual fear condition, average freezing between 4th and 7th minutes (FIG. 12) (rats [6]): enhances contextual fear condition
- eIF-2α phosphorylation in the mature hippocampus (FIG. 3) (eIF-2α; [7]): inhibited
- time of return of eIF-2α phosphorylation to base line following treatment (eIF-2α; time window, Western blot): 3 to 4 h
- C-16 effect on eIF-2α phosphorylation after 1 hr (eIF-2α; [8]): strong effect
